Results on 18 compounds are retold here after US8729095B2, “3-(biaryloxy)propionic acid derivatives for prevention and/or treatment of thromboembolic diseases” (Daiichi Sankyo Company, Limited, priority 2009, dated 2014).

SMILES strings stand for the structures.

Assay [1] concerns platelet aggregation induced by ADP in human platelet-rich plasma (PRP). The assay is described as follows: Human platelet aggregation inhibitory activity (ADP-induced, platelet-rich plasma). To be noted: 8 min, ADP final concentration 20 μM, maximum aggregation rate, measured for 8 minutes. Format: cell-based. The method, then: A blood collecting syringe containing 1/10 volume of a 3.8% sodium citrate solution was used to collect blood from radial vein of a healthy person. The collected blood was centrifuged at 180×g at room temperature for 10 minutes to separate the supernatant (platelet-rich plasma; PRP). After PRP was separately collected, the remaining blood was centrifuged at 1,600×g for 10 minutes to separately collect platelet-poor plasma (PPP) of the upper layer. PRP was left at rest at 16° C. for 30 minutes, and subsequently used for measurement.
200 μL of the separately collected PRP was dispensed into a cuvette for the aggregation test, and 1 μL of dimethylsulfoxide (control) or a test compound solution diluted with dimethylsulfoxide was added, followed by incubation at 37° C. for 2 minutes. Subsequently, 2 μL of 2 mM ADP was added (final concentration 20 μM) to induce platelet aggregation.
Platelet aggregation was measured for 8 minutes using an aggregometer (MCM HEMA TRACER 313M; MC MEDICAL, INC.). With the light transmittance rate of PPP being set as an aggregation value of 100%, the maximum aggregation rate was determined for each concentration of the test compounds to calculate IC50 values.

Assay [2] deals with platelet aggregation induced by ADP in rat platelet-rich plasma (PRP). Briefly: Platelet aggregation inhibitory activity during oral administration in a rat (ex vivo, ADP-induced). The settings on record: male Wistar rats, 1 mg/10 ml/kg orally, blood collected 4 hours after administration, ADP final concentration 3 μM, vs. control PRP (solvent only), read-out: Inhibition Rates (%). How it is done:
1 mg/10 ml/kg of the test compound was orally administered by gavage to male rats (Slc: Wistar, age 8 to 9 weeks) that had been fasted overnight. 4 hours after administration, a syringe containing 1/10 volume of a 3.13% sodium citrate solution was used to collect blood from the abdominal aorta of a rat under anesthesia. From the collected blood, platelet-rich plasma (PRP) and platelet-poor plasma (PPP) were prepared according to the method described in the method for measuring human platelet aggregation inhibitory activity. PRP was left at rest at 16° C. for 30 minutes, and subsequently used for measurement.
200 μL of the separately collected PRP was dispensed into a cuvette for the aggregation test, followed by incubation at 37° C. for 2 minutes, and subsequently 2 μL of 0.3 mM ADP was added (final concentration 3 μM) to induce platelet aggregation.
Platelet aggregation was measured for 8 minutes using an aggregometer (MCM HEMA TRACER 313M; MC MEDICAL, INC.). With the light transmittance rate of PPP being set as an aggregation value of 100%, the maximum aggregation rate of PRP was determined, and compared with the maximum aggregation rate of control PRP (rat administered only with a solvent) to calculate inhibition rates.

Broadly, the IC50 is the concentration needed to halve the response being measured. A higher IC50 goes with weaker potency in that assay. Usually inhibition stands for how much of the control response was suppressed. As for `C[C@@H](COc1ccc(F)cc1-c1ccc(C(=O)N2CCC(N3C(=O)C(C)(C)Oc4ncc(Cl)cc43)CC2)c(F)c1)C(=O)O` [Example 27, (2S)-3-[(4′-{[4-(7-Chloro-3,3-dimethyl-2-oxo-2,3-dihydro-1H-pyrido[2,3-b][1,4]oxazin-1-yl)piperidin-1-yl]carbonyl}-3′,5-difluorobiphenyl-2-yl)oxy]-2-methylpropanoic acid], in assay [1], inhibition was half-maximal at 6.5 µM (IC50). Besides, the inhibition at 1 mg/kg in assay [2] amounted to 36%.
For the compound `C[C@@H]1Oc2ncc(Cl)cc2N(C2CCN(C(=O)c3ccc(-c4cc(F)ccc4OC[C@H](C)C(=O)O)cc3F)CC2)C1=O` [Example 26, (2S)-3-{[4′-({4-[(3S)-7-Chloro-3-methyl-2-oxo-2,3-dihydro-1H-pyrido[2,3-b][1,4]oxazin-1-yl]piperidin-1-yl}carbonyl)-3′,5-difluorobiphenyl-2-yl]oxy}-2-methylpropanoic acid], the 50% inhibitory concentration (IC50) in assay [1] came out at 7.3 µM. Further, the inhibition at 1 mg/kg in assay [2] is 55%.
In the same order, the values of `C[C@H](CC(=O)O)Oc1ccccc1-c1ccc(C(=O)N2CCC(N3C(=O)C(C)(C)Cc4ncc(Cl)cc43)CC2)c(F)c1` [Example 5, (3R)-3-[(4′-{[4-(7-Chloro-3,3-dimethyl-2-oxo-3,4-dihydro-1,5-naphthyridin-1(2H)-yl)piperidin-1-yl]carbonyl}-3′-fluorobiphenyl-2-yl)oxy]butanoic acid] are 3.4 µM and 70%.
In assay [1], `C[C@@H]1Oc2ncc(Cl)cc2N(C2CCN(C(=O)c3ccc(-c4ccccc4OCC(C)(C)C(=O)O)cc3F)CC2)C1=O` [Example 2, 3-{[4′-({4-[(3S)-7-Chloro-3-methyl-2-oxo-2,3-dihydro-1H-pyrido[2,3-b][1,4]oxazin-1-yl]piperidin-1-yl}carbonyl)-3′-fluorobiphenyl-2-yl]oxy}-2,2-dimethylpropanoic acid] returned an IC50 of 3.5 µM. In addition, the inhibition at 1 mg/kg in assay [2] is 66%.
In the case of `C[C@@H](COc1ccccc1-c1ccc(C(=O)N2CCC(N3C(=O)C(C)(C)Oc4ncc(Cl)cc43)CC2)c(F)c1)C(=O)O` [Example 25, (2S)-3-[(4′-{[4-(7-Chloro-3,3-dimethyl-2-oxo-2,3-dihydro-1H-pyrido[2,3-b][1,4]oxazin-1-yl)piperidin-1-yl]carbonyl}-3′-fluorobiphenyl-2-yl)oxy]-2-methylpropanoic acid], the IC50 in assay [1] was 5.1 µM. Besides, in assay [2], the inhibition at 1 mg/kg worked out at 46%.
`C[C@@H](COc1ccccc1-c1cnc(C(=O)N2CCC(N3C(=O)C(C)(C)Cc4ncc(Cl)cc43)CC2)c(F)c1)C(=O)O` [Example 46, (2S)-3-[2-(6-{[4-(7-Chloro-3,3-dimethyl-2-oxo-3,4-dihydro-1,5-naphthyridin-1(2H)-yl)piperidin-1-yl]carbonyl}-5-fluoropyridin-3-yl)phenoxy]-2-methylpropanoic acid]: the IC50 in assay [1] was 1.8 µM. Also, in assay [2], the inhibition at 1 mg/kg worked out at 31%.
In assay [1], `C[C@H](CC(=O)O)Oc1cc(F)ccc1-c1ccc(C(=O)N2CCC(N3C(=O)C(C)(C)Oc4ncc(Cl)cc43)CC2)c(F)c1` [Example 35, (3R)-3-[(4′-{[4-(7-Chloro-3,3-dimethyl-2-oxo-2,3-dihydro-1H-pyrido[2,3-b][1,4]oxazin-1-yl)piperidin-1-yl]carbonyl}-3′,4-difluorobiphenyl-2-yl)oxy]butanoic acid] yielded an IC50 of 3.6 µM. Also, in assay [2], the inhibition at 1 mg/kg was found to be 96%.
In the same order, the values of `C[C@H](CC(=O)O)Oc1ccccc1-c1ccc(C(=O)N2CCC(N3C(=O)C(C)(C)Oc4ncc(C#N)cc43)CC2)c(F)c1` [Example 52, (3R)-3-[(4′-{[4-(7-Cyano-3,3-dimethyl-2-oxo-2,3-dihydro-1H-pyrido[2,3-b][1,4]oxazin-1-yl)piperidin-1-yl]carbonyl}-3′-fluorobiphenyl-2-yl)oxy]butanoic acid] are 2.3 µM and 71%.
On the same counts, the results for `Cc1ccc(-c2ccc(C(=O)N3CCC(N4C(=O)C(C)(C)Oc5ncc(Cl)cc54)CC3)c(F)c2)c(O[C@H](C)CC(=O)O)c1` [Example 55, (3R)-3-[(4′-{[4-(7-Chloro-3,3-dimethyl-2-oxo-2,3-dihydro-1H-pyrido[2,3-b][1,4]oxazin-1-yl)piperidin-1-yl]carbonyl}-3′-fluoro-4-methylbiphenyl-2-yl)oxy]butanoic acid] are 8.4 µM and 68%.
`C[C@H](CC(=O)O)Oc1ccc(F)cc1-c1ccc(C(=O)N2CCC(N3C(=O)[C@H](C)Oc4ncc(Cl)cc43)CC2)c(F)c1` [Example 29, (3R)-3-{[4′-({4-[(3S)-7-Chloro-3-methyl-2-oxo-2,3-dihydro-1H-pyrido[2,3-b][1,4]oxazin-1-yl]piperidin-1-yl}carbonyl)-3′,5-difluorobiphenyl-2-yl]oxy}butanoic acid]: the IC50 in assay [1] stood at 4.3 µM. In assay [2], the inhibition at 1 mg/kg is 75%.
Compound `C[C@H](CC(=O)O)Oc1ccc(F)cc1-c1ccc(C(=O)N2CCC(N3C(=O)C(C)(C)Cc4ncc(Cl)cc43)CC2)c(F)c1` [Example 14, (3R)-3-[(4′-{[4-(7-Chloro-3,3-dimethyl-2-oxo-3,4-dihydro-1,5-naphthyridin-1(2H)-yl)piperidin-1-yl]carbonyl}-3′,5-difluorobiphenyl-2-yl)oxy]butanoic acid] returned an IC50 in assay [1] of 3.4 µM. Further, the inhibition at 1 mg/kg in assay [2] came out at 79%.
In the case of `CC[C@H](CC(=O)O)Oc1ccccc1-c1cnc(C(=O)N2CCC(N3C(=O)C(C)(C)Oc4ncc(Cl)cc43)CC2)c(F)c1` [Example 41, (3R)-3-[2-(6-{[4-(7-Chloro-3,3-dimethyl-2-oxo-2,3-dihydro-1H-pyrido[2,3-b][1,4]oxazin-1-yl)piperidin-1-yl]carbonyl}-5-fluoropyridin-3-yl)phenoxy]pentanoic acid], the IC50 in assay [1] came to 5.7 µM. For the same compound, the inhibition at 1 mg/kg in assay [2] came to 56%.
`C[C@H](CC(=O)O)Oc1ccc(F)cc1-c1cnc(C(=O)N2CCC(N3C(=O)C(C)(C)Cc4ncc(Cl)cc43)CC2)c(F)c1` [Example 44, (3R)-3-[2-(6-{[4-(7-Chloro-3,3-dimethyl-2-oxo-3,4-dihydro-1,5-naphthyridin-1(2H)-yl)piperidin-1-yl]carbonyl}-5-fluoropyridin-3-yl)-4-fluorophenoxy]butanoic acid] came in with an IC50 in assay [1] of 3.4 µM. Moreover, in assay [2], the inhibition at 1 mg/kg came to 55%.
On the same counts, the results for `C[C@H](CC(=O)O)Oc1ccc(F)cc1-c1ccc(C(=O)N2CCC(N3C(=O)C(C)(C)Oc4ncc(Cl)cc43)CC2)c(F)c1` [Example 13, (3R)-3-[(4′-{[4-(7-Chloro-3,3-dimethyl-2-oxo-2,3-dihydro-1H-pyrido[2,3-b][1,4]oxazin-1-yl)piperidin-1-yl]carbonyl}-3′,5-difluorobiphenyl-2-yl)oxy]butanoic acid] are 4.1 µM and 63%.
Consider `C[C@H](CC(=O)O)Oc1ccccc1-c1ccc(C(=O)N2CCC(N3C(=O)[C@H](C)Oc4ncc(Cl)cc43)CC2)c(F)c1` [Example 28, (3R)-3-{[4′-({4-[(3S)-7-Chloro-3-methyl-2-oxo-2,3-dihydro-1H-pyrido[2,3-b][1,4]oxazin-1-yl]piperidin-1-yl}carbonyl)-3′-fluorobiphenyl-2-yl]oxy}butanoic acid], for which half-maximal inhibition in assay [1] (IC50) was put at 1.8 µM. The inhibition at 1 mg/kg in assay [2] came out at 74%.
As for `C[C@@H](COc1ccccc1-c1ccc(C(=O)N2CCC(N3C(=O)C(C)(C)Cc4ncc(Cl)cc43)CC2)c(F)c1)C(=O)O` [Example 11, (2S)-3-[(4′-{[4-(7-Chloro-3,3-dimethyl-2-oxo-3,4-dihydro-1,5-naphthyridin-1(2H)-yl)piperidin-1-yl]carbonyl}-3′-fluorobiphenyl-2-yl)oxy]-2-methylpropanoic acid], half-maximal inhibition in assay [1] (IC50) required 6.1 µM. The inhibition at 1 mg/kg in assay [2] stood at 45%.
Consider `C[C@@H]1Oc2ncc(Cl)cc2N(C2CCN(C(=O)c3ccc(-c4ccccc4OCC(C)(C)C(=O)O)cc3)CC2)C1=O` [Example 20, 3-{[4′-({4-[(3S)-7-Chloro-3-methyl-2-oxo-2,3-dihydro-1H-pyrido[2,3-b][1,4]oxazin-1-yl]piperidin-1-yl}carbonyl)biphenyl-2-yl]oxy}-2,2-dimethylpropanoic acid], for which the IC50 in assay [1] is 2.8 µM.
Turning to `C[C@H](CC(=O)O)Oc1ccc(F)cc1-c1ccc(C(=O)N2CCC(N3C(=O)CCc4ncc(Cl)cc43)CC2)c(F)c1` [Example 32, (3R)-3-[(4′-{[4-(7-Chloro-2-oxo-3,4-dihydro-1,5-naphthyridin-1(2H)-yl)piperidin-1-yl]carbonyl}-3′,5-difluorobiphenyl-2-yl)oxy]butanoic acid], half-maximal inhibition in assay [1] (IC50) required 17 µM.
